Source: patent US12201684B2, “Compositions for stimulation of mammalian innate immune resistance to pathogens” (priority 2009, dated 2025)

How the values were obtained:
[1] = system: P. aeruginosa strain PA103; test: In vivo inhalational P. aeruginosa challenge, survival; settings: wild type mice; aerosolized treatment 24 h prior to challenge
[2] = system: neutrophils and macrophages in BAL fluid; test: Bronchoalveolar lavage fluid leukocyte counts after aerosolized TLR ligands; format: in vivo, mice
[3] = cited from earlier work

Compound: monophosphoryl lipid A-synthetic [MPLA]
- protection against lethal P. aeruginosa pneumonia (survival) [1]: non-significant trend towards increased mortality

Compound: CC(C)Cn1cnc2c(N)nc3ccccc3c21 [imiquimod, 1-(2-methylpropyl)-1H-imidazo[4,5-c]quinolin-4-amine]
- neutrophil infiltration above a certain ligand concentration ([2]; BAL 24 h after treatment, highest concentrations tested): reduction in neutrophil infiltration
- protection against lethal P. aeruginosa pneumonia (survival) [1]: trend towards protection

Compound: CCC(=O)O[C@]1(C(=O)SCF)[C@H](C)C[C@H]2[C@@H]3C[C@H](F)C4=CC(=O)C=C[C@]4(C)[C@@]3(F)[C@@H](O)C[C@@]21C [Fluticasone propionate, S-(fluromethyl)6α,9-difluoro-11β-17-dihydroxy-16α-methyl-3-oxoandrosta-1,4-diene-17β-carbothioate, 17-propionate]
- solubility in dimethyl sulfoxide and dimethylformamide [3]: freely soluble
- solubility in methanol and 95% ethanol [3]: slightly soluble
- solubility in water [3]: practically insoluble

Compound: poly(I:C)
- influx of macrophages on BAL ([2]; 24 h after treatment): significant influx
